This passage reports TGI and GI50 results from PubChem BioAssay (NCI).

Each structure is given as a SMILES string. Values joined by “and” are separate entries in the source; they are usually repeats but may differ in a detail not shown here. Identical values can stand only once.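 How tested: cells in 96-well plates exposed to compound for 48 hours at five concentrations. The concentration for 50% growth inhibition is given as GI50. TGI: concentration producing complete growth inhibition.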

Holding throughout (assay): NCI anticancer screen, dose series, 48 h
Test [1] relates to 786-0 renal.
Test [2] relates to COLO 205 colon.
For test [3], the system named is HOP-92 NSCLC.
For test [4], the system named is HS 578T breast.
Test [5] concerns HT29 colon.
The test system of test [6] is IGROV1 ovarian.
The test system of test [7] is LOX IMVI melanoma.
In test [8] the test system is MDA-MB-231 breast.
In test [9] the test system is MDA-MB-435.
Test [10] concerns MOLT-4 leukemia.
The test system of test [11] is RXF 393 renal.
The subject of test [12] is SF-268 CNS.
Test [13] deals with UACC-62 melanoma.

For the compound `COc1ccc(OC)c2nc3c(C(=O)NCCN(C)C)cccc3nc12`, the TGI was above 76.3 µM in [1]; 11.9 µM in test [2]; 50.2 µM in [3]; 29.6 µM in [4]; above 44.3 µM in test [5]; above 69.5 µM in test [6]. Besides, the TGI in test [7] was determined as 4.91 µM; in test [8] it was 19.3 µM; in [9], 17.5 µM; in [10], 17.6 µM; in [11], 23.2 µM; in [12] it was 27.6 µM. The same compound gave a TGI in test [13] above 49.3 µM.

Turning to `C/C=C(/C)C(=O)O[C@H]1C(C)=C[C@]23C(=O)[C@@H](C=C(COC(C)=O)[C@@H](O)[C@]12O)[C@H]1[C@@H](C[C@H]3C)[C@@]1(C)OC(=O)/C(C)=C\C`, the TGI turned out to be 8.93 µM in [1]; 3.8 µM in test [2]; 6.34 µM in test [3]; 5.28 µM in [4]; 1.49 µM in test [5]; 10.2 µM in [6]. Further, the TGI was determined as 9.65 µM in test [7]; 8.18 µM in [8]; 6.6 µM in test [9]; 3.56 µM in [10]; 5.25 µM in test [11]; 4.73 µM in test [12]. In [13], this compound came in with a TGI of 5.69 µM.

As to `CC1(O)/C(=N/O)CC2CC1C2(C)C` (stereo unspecified), the TGI in test [1], in test [2], in [3], in test [4], in test [5] and in test [6] was above 100 µM each time. Moreover, the TGI in test [7], in test [8], in test [9], in test [10], in [11] and in test [12] was above 100 µM throughout. In test [13], this compound gave a TGI above 100 µM.

As for `Cc1ccc(S(=O)(=O)N2CCCCN(S(=O)(=O)c3ccc(C)cc3)Cc3ccccc3OCCOCCOc3c4cccc3Cc3cccc5c3OCCOCCOc3ccccc3CN(S(=O)(=O)c3ccc(C)cc3)CCCN(S(=O)(=O)c3ccc(C)cc3)Cc3ccccc3OCCOCCOc3c(cccc3C4)Cc3cccc(c3OCCOCCOc3ccccc3C2)C5)cc1`, the TGI in test [1], in [2], in test [3], in test [4], in [5] and in [6] was above 100 µM in each case. Further, the TGI in [7], in test [8], in test [9], in test [10], in [11] and in test [12] was above 100 µM each time. The same compound showed a TGI in [13] above 100 µM.

As to `CCOC(=O)n1cncc1CC(NC(=O)Cc1c(C(=O)C=C(C)C)[nH]c2ccccc12)C(=O)OC` (stereo unspecified), the TGI in [1] worked out at 55.5 µM; in test [2] it was 41 µM; in [3] it was 26.4 µM; in [4] it was 65.9 µM; in test [5] it was 66.6 µM; in test [6], 37.5 µM. The TGI in test [7] came to 35.6 µM; in test [8], 36.1 µM; in test [9] it was 37.1 µM; in test [10] it was 47.3 µM; in test [11], 28.5 µM; in test [12], 37.4 µM. In addition, the TGI in test [13] worked out at 36.3 µM.

Regarding `CN(C)CCNc1ccc2c(=O)n(CCN(C)C)c(=O)n3c4ccc(N)cc4c(=O)c1c23`, the TGI in test [1] worked out at 1.18 µM; in [2], 1.26 µM; in test [3] it was 0.87 µM; in test [4], 1.3 µM; in [5], 0.46 µM; in test [6], 0.534 µM. Further, the TGI in [7] amounted to 0.283 µM; in [8] it was 0.866 µM; in test [9], 0.273 µM; in test [10], 0.161 µM; in [11], 0.263 µM; in test [12], 1.25 µM. In test [13], this compound gave a TGI of 1.21 µM.

As for `Cn1c2nc3ccccc3c-2cc2ccccc21`, the TGI is above 100 µM in [1]; > 35.9 µM and 17.2 µM in test [2]; 30.7 µM and 46.7 µM in test [3]; 16.4 µM and 61.3 µM in test [4]; 18.3 µM and 31.4 µM in test [5]; 25.5 µM and > 100 µM in [6]. Besides, the TGI was > 31.8 µM and 22.5 µM in test [7]; > 60.7 µM and 33.1 µM in test [8]; > 46.4 µM and 19 µM in test [9]; 7.15 µM and 9.9 µM in test [10]; 14.8 µM and 20.1 µM in test [11]; 17 µM and 40.3 µM in [12]. Also, the TGI in [13] was 8.85 µM and 20.8 µM. The GI50 in test [3] was 3.06 µM and 11.7 µM; in [4], 4.54 µM and 17.7 µM; in [8], 5.58 µM and 11.6 µM; in [10] it was 1.38 µM and 2.97 µM; in test [11] it was 3.45 µM and 7.68 µM; in [12], 3.95 µM and 8.47 µM. Also, the GI50 in test [13] is 3.05 µM and 8.55 µM.

`O=C(Nc1nc(C23CC4CC(CC(C4)C2)C3)cs1)c1cc2cc(Br)cc(Br)c2oc1=O`: the TGI in test [1] was above 100 µM; in test [2] it was above 100 µM; in test [3], above 100 µM; in test [4] it was 79.7 µM; in test [5], above 100 µM; in test [6], above 100 µM. Also, the TGI in test [7], in test [8], in [9], in test [10], in [11] and in [12] was above 100 µM in each case. Besides, the TGI in test [13] was above 100 µM.
